Measurements reported in the NIST ThermoML archive (doi:10.1021/je060179e).
Numbers after ± are expanded uncertainties.

Assay: xn = mol fraction of the nth substance listed
Conditions: for mass density: 101 kPa, Liquid

CCCCCCCCO [octan-1-ol] + CCCCCCC
Conditions	mass density [kg/m3]	surface tension liquid-gas [mN/m]
288.15 K, x2 = 0.0514	822.18 ± 0.45	–
288.15 K, x2 = 0.0516	–	26.75 ± 0.31
288.15 K, x2 = 0.0995	–	26.18 ± 0.3
288.15 K, x2 = 0.1001	816.02 ± 0.46	–
288.15 K, x2 = 0.1845	–	25.05 ± 0.3
288.15 K, x2 = 0.2015	802.93 ± 0.48	–
288.15 K, x2 = 0.3082	788.6 ± 0.5	–
288.15 K, x2 = 0.3346	–	23.74 ± 0.29
288.15 K, x2 = 0.4054	775.17 ± 0.52	–
288.15 K, x2 = 0.4142	–	23.12 ± 0.29
288.15 K, x2 = 0.5034	–	22.6 ± 0.28
288.15 K, x2 = 0.517	759.5 ± 0.54	–
288.15 K, x2 = 0.6074	–	22.16 ± 0.28
288.15 K, x2 = 0.6305	743.28 ± 0.56	–
288.15 K, x2 = 0.6639	–	21.9 ± 0.28
288.15 K, x2 = 0.7114	731.48 ± 0.58	–
288.15 K, x2 = 0.8136	716.21 ± 0.6	–
288.15 K, x2 = 0.8325	–	21.24 ± 0.28
288.15 K, x2 = 0.9061	702.2 ± 0.62	–
288.15 K, x2 = 0.9105	–	20.94 ± 0.27
288.15 K, x2 = 0.9518	695.28 ± 0.63	–
288.15 K, x2 = 0.9561	–	20.87 ± 0.27
293.15 K, x2 = 0.0514	818.71 ± 0.46	–
293.15 K, x2 = 0.0564	–	26.14 ± 0.3
293.15 K, x2 = 0.1001	812.51 ± 0.47	–
293.15 K, x2 = 0.1057	–	25.54 ± 0.3
293.15 K, x2 = 0.2015	799.33 ± 0.48	–
293.15 K, x2 = 0.2084	–	24.34 ± 0.29
293.15 K, x2 = 0.3082	784.92 ± 0.5	–
293.15 K, x2 = 0.3112	–	23.38 ± 0.29
293.15 K, x2 = 0.4054	771.41 ± 0.52	–
293.15 K, x2 = 0.4066	–	22.59 ± 0.28
293.15 K, x2 = 0.5114	–	21.96 ± 0.28
293.15 K, x2 = 0.517	755.65 ± 0.54	–
293.15 K, x2 = 0.6092	–	21.52 ± 0.28
293.15 K, x2 = 0.6305	739.34 ± 0.56	–
293.15 K, x2 = 0.7114	727.47 ± 0.58	–
293.15 K, x2 = 0.7164	–	20.99 ± 0.27
293.15 K, x2 = 0.8124	–	20.62 ± 0.27
293.15 K, x2 = 0.8136	712.11 ± 0.6	–
293.15 K, x2 = 0.8965	–	20.48 ± 0.27
293.15 K, x2 = 0.9061	698.04 ± 0.62	–
293.15 K, x2 = 0.9518	691.08 ± 0.63	–
293.15 K, x2 = 0.9573	–	20.26 ± 0.27
298.15 K, x2 = 0.0514	815.21 ± 0.46	–
298.15 K, x2 = 0.0541	–	25.64 ± 0.3
298.15 K, x2 = 0.1001	808.98 ± 0.47	–
298.15 K, x2 = 0.1083	–	25.03 ± 0.3
298.15 K, x2 = 0.2004	–	23.91 ± 0.29
298.15 K, x2 = 0.2015	795.72 ± 0.49	–
298.15 K, x2 = 0.3082	781.22 ± 0.51	–
298.15 K, x2 = 0.3137	–	22.82 ± 0.28
298.15 K, x2 = 0.405	–	22.09 ± 0.28
298.15 K, x2 = 0.4054	767.63 ± 0.53	–
298.15 K, x2 = 0.5089	–	21.44 ± 0.28
298.15 K, x2 = 0.517	751.77 ± 0.55	–
298.15 K, x2 = 0.6085	–	20.94 ± 0.27
298.15 K, x2 = 0.6305	735.37 ± 0.57	–
298.15 K, x2 = 0.7107	–	20.46 ± 0.27
298.15 K, x2 = 0.7114	723.44 ± 0.59	–
298.15 K, x2 = 0.8072	–	20.15 ± 0.27
298.15 K, x2 = 0.8136	707.99 ± 0.61	–
298.15 K, x2 = 0.9061	693.84 ± 0.63	–
298.15 K, x2 = 0.9071	–	19.82 ± 0.27
298.15 K, x2 = 0.9518	686.85 ± 0.64	–
298.15 K, x2 = 0.9536	–	19.64 ± 0.27
303.15 K, x2 = 0.0504	–	25.18 ± 0.3
303.15 K, x2 = 0.0514	811.7 ± 0.47	–
303.15 K, x2 = 0.1001	805.43 ± 0.47	–
303.15 K, x2 = 0.1033	–	24.57 ± 0.29
303.15 K, x2 = 0.2015	792.09 ± 0.49	–
303.15 K, x2 = 0.2052	–	23.46 ± 0.29
303.15 K, x2 = 0.3082	777.49 ± 0.51	–
303.15 K, x2 = 0.3108	–	22.37 ± 0.28
303.15 K, x2 = 0.4054	763.85 ± 0.53	–
303.15 K, x2 = 0.4134	–	21.56 ± 0.28
303.15 K, x2 = 0.5153	–	20.94 ± 0.27
303.15 K, x2 = 0.517	747.87 ± 0.55	–
303.15 K, x2 = 0.6005	–	20.46 ± 0.27
303.15 K, x2 = 0.6305	731.38 ± 0.58	–
303.15 K, x2 = 0.7067	–	19.98 ± 0.27
303.15 K, x2 = 0.7114	719.37 ± 0.59	–
303.15 K, x2 = 0.8043	–	19.58 ± 0.27
303.15 K, x2 = 0.8136	703.84 ± 0.61	–
303.15 K, x2 = 0.9047	–	19.22 ± 0.26
303.15 K, x2 = 0.9061	689.61 ± 0.63	–
303.15 K, x2 = 0.9486	–	19.14 ± 0.26
303.15 K, x2 = 0.9518	682.59 ± 0.64	–
308.15 K, x2 = 0.0514	808.16 ± 0.47	–
308.15 K, x2 = 0.0562	–	24.54 ± 0.29
308.15 K, x2 = 0.1001	801.85 ± 0.48	–
308.15 K, x2 = 0.1017	–	24.05 ± 0.29
308.15 K, x2 = 0.2015	788.43 ± 0.5	–
308.15 K, x2 = 0.2078	–	22.86 ± 0.28
308.15 K, x2 = 0.3065	–	21.92 ± 0.28
308.15 K, x2 = 0.3082	773.75 ± 0.52	–
308.15 K, x2 = 0.4054	760.1 ± 0.54	–
308.15 K, x2 = 0.4117	–	21.11 ± 0.27
308.15 K, x2 = 0.5064	–	20.53 ± 0.27
308.15 K, x2 = 0.517	743.94 ± 0.56	–
308.15 K, x2 = 0.6065	–	20 ± 0.27
308.15 K, x2 = 0.6305	727.36 ± 0.58	–
308.15 K, x2 = 0.7081	–	19.61 ± 0.27
308.15 K, x2 = 0.7114	715.28 ± 0.6	–
308.15 K, x2 = 0.8	–	19.27 ± 0.26
308.15 K, x2 = 0.8136	699.65 ± 0.62	–
308.15 K, x2 = 0.9028	–	18.88 ± 0.26
308.15 K, x2 = 0.9061	685.35 ± 0.64	–
308.15 K, x2 = 0.9483	–	18.82 ± 0.26
308.15 K, x2 = 0.9518	678.3 ± 0.65	–
